Test in all cases: DTP human tumour cell line panel, 48 h
For assay [1], the system named is A549 NSCLC.
In assay [2] the test system is ACHN renal.
Assay [3] has as its system COLO 205 colon.
The test system of assay [4] is M14 melanoma.
The subject of assay [5] is MOLT-4 leukemia.
Assay [6] concerns NCI-H23 lung.
Assay [7] has as its system SN12C renal.
Assay [8] relates to SW-620 colon.
Assay [9] has as its system U251 CNS.
The test system of assay [10] is UACC-257 melanoma.

Structures are written as SMILES. “And” between values parts separate entries of the source, which are not always exact repeats. Identical values can stand only once.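 Results reflect a 48-hour exposure of cells in 96-well plates to compound at five concentrations. GI50 marks 50% less growth. TGI: total growth inhibition.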

Usually TGI stands for the concentration at which net growth stops. Lower therefore signals greater sensitivity of the cells. On to `CCOC(=O)NC(=O)c1cn(C2CCCCC2)c(=O)[nH]c1=O`, for which the TGI in assay [1], in assay [2], in assay [3], in [4], in assay [5] and in assay [6] was more than 100 µM in each case. In addition, the TGI in assay [7], in assay [8], in assay [9] and in assay [10] was more than 100 µM in each case.
Consider `CN(C)CCNCCN`, for which the TGI in assay [1], in assay [2], in assay [3], in assay [4], in assay [5] and in assay [6] was more than 100 µM throughout. Further, the TGI in assay [7], in assay [8], in assay [9] and in assay [10] was more than 100 µM in each case.
What is called GI50 is the concentration at which growth is held to half of that of the control. For `C=CC(=O)N1CN(C(=O)C=C)CN(C(=O)C=C)C1`, the GI50 in [1] is 21.2 µM; in assay [2], 1.89 µM; in [3], 1.7 µM; in assay [4] it was 2.85 µM; in [5], 2.71 µM; in assay [6], 2.77 µM. Moreover, the GI50 in [7] is 20.7 µM; in assay [8], 2.16 µM; in assay [9], 4.34 µM; in assay [10], 1.82 µM. The total growth inhibition concentration (TGI) was 81.7 µM in assay [1]; 4.49 µM in [2]; 3.59 µM in [3]; 7.86 µM in [4]; 8.05 µM in assay [5]; 9.15 µM in assay [6]. Besides, the TGI in [7] is 51.6 µM; in assay [8], 5.16 µM; in assay [9] it was 16.5 µM; in assay [10] it was 4.59 µM.
Regarding `Nc1nc(-c2ccc(Cl)c([N+](=O)[O-])c2)cs1`, the TGI in assay [1], in assay [2], in assay [3], in [4], in assay [5] and in assay [6] was more than 100 µM each time. Further, the TGI in assay [7], in assay [8], in assay [9] and in [10] was more than 100 µM throughout.
In the case of `CCOP(=O)(OCC)C(C(=O)OC)C(=O)C(=O)Nc1ccc(Cl)cc1Cl` (configuration not stated), the concentration for total growth inhibition (TGI) in assay [1], in [2], in assay [3], in assay [4], in assay [5] and in [6] was more than 100 µM in each case. Further, the total growth inhibition concentration (TGI) in assay [7], in assay [8], in [9] and in assay [10] was more than 100 µM throughout.
On to `COC(=O)C(=O)C(C(C)=O)C(=O)NCc1ccc(OC)c(OC)c1` (configuration not stated), for which the TGI in assay [1], in assay [2], in assay [3], in [4], in assay [5] and in assay [6] was more than 100 µM in each case. Further, the concentration for total growth inhibition (TGI) in assay [7], in [8], in assay [9] and in [10] was more than 100 µM each time.
`COc1cc2c(/C=N\N=C(N)N)c[nH]c2cc1C`: the GI50 in [1] is more than 100 µM; in assay [2] it was 24.3 µM; in [3] it was 17.3 µM; in assay [4], 15.1 µM; in assay [5] it was 14.2 µM; in assay [6], 18.7 µM. Besides, the GI50 was 11.2 µM in assay [7], 16.1 µM in assay [8], 13.2 µM in assay [9] and 36.8 µM in assay [10]. The TGI is more than 100 µM in assay [1]; more than 100 µM in assay [2]; 35.1 µM in [3]; 28.3 µM in assay [4]; 27.2 µM in [5]; 53.5 µM in assay [6]. In addition, the TGI in [7] was 37.5 µM; in assay [8], 29.6 µM; in [9] it was 27.3 µM; in assay [10], more than 100 µM.
`ClC(Cl)=C1C(=C(Cl)Cl)C(Cl)(Cl)C1(Cl)Cl`: the concentration for total growth inhibition (TGI) in assay [1] is 25.7 µM; in assay [2] it was 8.81 µM; in assay [3] it was 10.8 µM; in assay [4], 4.17 µM; in assay [5], 0.715 µM and 2 µM; in [6] it was 3.57 µM. Moreover, the TGI was determined as 2.13 µM in assay [7], 3.75 µM in assay [8], 13.9 µM in [9] and 12.9 µM in [10]. Moreover, the values for the GI50 in assay [5] and in assay [7] were 0.278 µM and 0.774 µM, respectively.
As for `O=C(CC(=O)C1CCOC1=O)C(=O)Nc1cccc(Cl)c1` (configuration not stated), the TGI in assay [1], in [2], in assay [3], in assay [4], in [5] and in assay [6] was more than 100 µM each time. For the same compound, the concentration for total growth inhibition (TGI) in assay [7], in assay [8], in assay [9] and in assay [10] was more than 100 µM in each case.
On to `O=C(Nc1cc(Cl)ccc1O)c1ccc(Nc2ccnc(C(F)(F)F)c2)cc1`, for which the GI50 in assay [1] is 3.97 µM; in assay [2], 2.35 µM; in assay [3] it was 1.86 µM; in assay [4], 3.56 µM; in assay [5], 1.75 µM; in assay [6], 2.46 µM. Besides, the GI50 in assay [7] was 2.65 µM; in assay [8], 3.73 µM; in assay [9], 3.47 µM; in [10], 3.53 µM. Also, the TGI in [1] is more than 100 µM; in assay [2] it was 7.42 µM; in [3], 4.23 µM; in assay [4], 54.1 µM; in assay [5], 6.6 µM; in assay [6] it was 7.81 µM. Moreover, the concentration for total growth inhibition (TGI) in assay [7] is 32 µM; in assay [8], more than 100 µM; in assay [9], more than 100 µM; in assay [10], more than 100 µM.

Values taken from PubChem BioAssay (NCI).
